Experimental findings from patent publication US8044198B2, “Sirtuin modulating compounds” (Sirtris Pharmaceuticals, Inc., priority 2005, dated 2011) are described below.

For the experiment, the target named is T1, SIRT1 (Homo sapiens, UniProt Q96EB6).
T1 sequence (Q96EB6 1-747): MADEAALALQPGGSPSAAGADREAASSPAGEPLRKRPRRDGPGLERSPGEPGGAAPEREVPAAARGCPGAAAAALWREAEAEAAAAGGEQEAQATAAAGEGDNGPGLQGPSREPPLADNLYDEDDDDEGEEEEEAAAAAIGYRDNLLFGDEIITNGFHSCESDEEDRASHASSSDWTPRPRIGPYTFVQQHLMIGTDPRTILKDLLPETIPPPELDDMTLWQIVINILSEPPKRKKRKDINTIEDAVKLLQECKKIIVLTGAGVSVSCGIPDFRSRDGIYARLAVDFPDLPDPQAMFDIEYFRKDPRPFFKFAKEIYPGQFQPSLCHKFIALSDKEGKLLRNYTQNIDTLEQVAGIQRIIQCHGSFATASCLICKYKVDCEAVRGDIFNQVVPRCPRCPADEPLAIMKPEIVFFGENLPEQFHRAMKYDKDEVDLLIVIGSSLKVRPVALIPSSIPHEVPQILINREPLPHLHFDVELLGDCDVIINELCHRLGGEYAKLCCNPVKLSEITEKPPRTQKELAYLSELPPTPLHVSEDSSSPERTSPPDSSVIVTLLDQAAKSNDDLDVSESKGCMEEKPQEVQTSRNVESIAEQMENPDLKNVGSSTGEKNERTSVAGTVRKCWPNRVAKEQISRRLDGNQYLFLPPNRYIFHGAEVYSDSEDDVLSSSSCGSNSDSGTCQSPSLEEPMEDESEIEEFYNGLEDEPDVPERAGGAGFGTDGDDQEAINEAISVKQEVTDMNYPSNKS
Briefly: SIRT1 mass spectrometry (MS) based deacetylation assay. For FOLD ACT. MS: test concentration or dose not given here. The experiment is classed as biochemical. The note with it: Sirt1 activators; for EC50: mass spectrometry assay, read-out: ED50 MS ASSAY; for FOLD ACT. MS: fold activation as determined by MS.

With `S=C(Nc1ccc(-n2cccn2)cc1)Nc1cccc(-c2nc3ccncc3s2)c1` [Compound 481], the EC50 fell in the range of 5 to 50 µM. For the molecule `Cc1cc(C)cc(C(=O)Nc2ccccc2-c2nc3ncccc3o2)c1` [Compound 482], the “FOLD ACT. MS” value is reported as “B (B (Fold Activation <250%))” and the EC50 was less than 5 µM. For `S=C(Nc1ccc(N2CCOCC2)nc1)Nc1cccc(-c2nc3ccncc3s2)c1` [Compound 484] the same measures were “B (B (Fold Activation <250%))” and 5 to 50 µM. `S=C(Nc1cccnc1)Nc1cccc(-c2nc3ccncc3s2)c1` [Compound 485]: the EC50 was 5 to 50 µM. As for `COc1ccc(CNC(=S)Nc2cccc(-c3nc4ccncc4s3)c2)cc1` [Compound 498], the EC50 was 5 to 50 µM. For `COc1cc(C(=O)Nc2ccccc2-c2nc3ccccc3[nH]2)ccc1CN1CCOCC1` [Compound 503], the “FOLD ACT. MS” value is “A (A (Fold activation >250%))” and the EC50 is less than 5 µM. The matching figures for `CN(C)c1cccc(C(=O)Nc2ccccc2-c2cn3cccnc3n2)c1` [Compound 504]: “B (B (Fold Activation <250%))” and 5 to 50 µM. For the molecule `COc1cc(C(=O)Nc2cccc(-c3nc4ncccc4o3)c2)ccc1CN1CCCC1` [Compound 506], the “FOLD ACT. MS” value is listed as “A (A (Fold activation >250%))” and the EC50 fell in the range of 5 to 50 µM. The matching figures for `COc1ccc(C(=O)Nc2ccc(C)cc2-c2nc3ccccc3[nH]2)cc1OC` [Compound 507]: “A (A (Fold activation >250%))” and less than 5 µM. For `O=C(Nc1ccccc1-c1nc2ccccc2[nH]1)c1cnc2ccccc2n1` [Compound 508] the same measures were “A (A (Fold activation >250%))” and less than 5 µM. For the molecule `O=C(Nc1ccccc1-c1cn2c(CN3CCNCC3)csc2n1)c1c[nH]c2ccccc12` [Compound 510], the “FOLD ACT. MS” value is given as “A (A (Fold activation >250%))” and the EC50 was less than 5 µM. The matching figures for `O=C(Nc1ccccc1-c1cn2c(CN3CCNCC3)csc2n1)c1c[nH]nc1-c1ccccc1` [Compound 512]: “A (A (Fold activation >250%))” and less than 5 µM. For `O=C(Nc1ccccc1-c1cn2cc(CN3CCNCC3)sc2n1)c1cnc2ccccc2n1` [Compound 513], the “FOLD ACT. MS” value is “A (A (Fold activation >250%))” and the EC50 was less than 5 µM. For the molecule `O=C(Nc1cccc(-c2nc3nc(CN4CCNCC4)ccc3o2)c1)c1cnc2ccccc2n1` [Compound 514], the “FOLD ACT. MS” value is recorded as “B (B (Fold Activation <250%))” and the EC50 is 5 to 50 µM. The matching figures for `COc1ccc(C(=O)Nc2ccc(-c3nc4cnccc4s3)s2)c(OC)c1` [Compound 515]: “B (B (Fold Activation <250%))” and less than 5 µM. For `CN(C)c1cccc(C(=O)Nc2ccc(-c3nc4cnccc4s3)s2)c1` [Compound 518] the same measures were “B (B (Fold Activation <250%))” and less than 5 µM.

In the case of `CN(C)c1ccc(C(=O)Nc2ccc(-c3nc4cnccc4s3)s2)cc1` [Compound 519], the “FOLD ACT. MS” value is recorded as “B (B (Fold Activation <250%))” and the EC50 was less than 5 µM. The matching figures for `COc1cc(C(=O)Nc2ccc(-c3nc4cnccc4s3)s2)cc(OC)c1OC` [Compound 520]: “B (B (Fold Activation <250%))” and less than 5 µM.

For the molecule `COc1cc(OC)cc(C(=O)Nc2ccccc2-c2nc3cccnc3[nH]2)c1` [Compound 521], the “FOLD ACT. MS” value is on record as “B (B (Fold Activation <250%))” and the EC50 is less than 5 µM. For the molecule `COc1cc(C(=O)Nc2ccccc2-c2nc3cccnc3[nH]2)cc(OC)c1OC` [Compound 522], the “FOLD ACT. MS” value was “A (A (Fold activation >250%))” and the EC50 was 5 to 50 µM. The matching figures for `COc1cc(C)ccc1C(=O)Nc1ccccc1-c1nc2cccnc2[nH]1` [Compound 523]: “B (B (Fold Activation <250%))” and 5 to 50 µM. Regarding `CN(C)c1cccc(C(=O)Nc2ccccc2-c2nc3cccnc3[nH]2)c1` [Compound 524], the “FOLD ACT. MS” value is recorded as “B (B (Fold Activation <250%))” and the EC50 was less than 5 µM. For `COc1ccc(C(=O)Nc2ccccc2-c2nc3cccnc3[nH]2)cc1OC` [Compound 525] the same measures were “B (B (Fold Activation <250%))” and less than 5 µM.

Turning to `O=C(Nc1ccccc1-c1nc2cccnc2[nH]1)c1ccc(N2CCOCC2)cc1` [Compound 526], the “FOLD ACT. MS” value is listed as “A (A (Fold activation >250%))” and the EC50 was less than 5 µM. For `O=C(Nc1ccccc1-c1nc2cccnc2[nH]1)c1ccc(N2CCCCC2)cc1` [Compound 527] the same measures were “B (B (Fold Activation <250%))” and less than 5 µM. The matching figures for `COc1ccc(C(=O)Nc2ccccc2-c2nc3cccnc3[nH]2)cc1C(F)(F)F` [Compound 528]: “B (B (Fold Activation <250%))” and less than 5 µM. For `O=C(Nc1ccccc1-c1nc2cccnc2[nH]1)c1cccc(OC(F)(F)F)c1` [Compound 529] the same measures were “B (B (Fold Activation <250%))” and less than 5 µM. Turning to `COc1cccc(C(=O)Nc2ccccc2-c2nc3cccnc3[nH]2)c1C` [Compound 530], the “FOLD ACT. MS” value is “B (B (Fold Activation <250%))” and the EC50 was less than 5 µM. The matching figures for `COc1ccc(C(=O)Nc2ccccc2-c2nc3cccnc3[nH]2)cc1` [Compound 531]: “B (B (Fold Activation <250%))” and less than 5 µM. The matching figures for `COc1cccc(C(=O)Nc2ccccc2-c2nc3cccnc3[nH]2)c1` [Compound 532]: “B (B (Fold Activation <250%))” and less than 5 µM.

Turning to `O=C(Nc1ccccc1-c1nc2cccnc2[nH]1)c1ccccc1` [Compound 533], the “FOLD ACT. MS” value is recorded as “B (B (Fold Activation <250%))” and the EC50 was less than 5 µM. The matching figures for `CN(C)c1ccc(C(=O)Nc2ccccc2-c2nc3cccnc3[nH]2)cc1` [Compound 534]: “B (B (Fold Activation <250%))” and less than 5 µM. On to `COc1cc(C(=O)Nc2ccccc2-c2nc3cccnc3[nH]2)ccc1CN1CCCC1` [Compound 535], for which the “FOLD ACT. MS” value is reported as “A (A (Fold activation >250%))” and the EC50 lay in the range of 5 to 50 µM. For `COc1cc(C(=O)Nc2ccccc2-c2nc3cccnc3[nH]2)ccc1CN1CCCCC1` [Compound 536] the same measures were “A (A (Fold activation >250%))” and 5 to 50 µM.

For the molecule `COc1cc(C(=O)Nc2ccccc2-c2nc3cccnc3[nH]2)ccc1CN1CCOCC1` [Compound 537], the “FOLD ACT. MS” value is reported as “A (A (Fold activation >250%))” and the EC50 is less than 5 µM. On to `COc1cc(C(=O)Nc2ccccc2-c2nc3cccnc3[nH]2)ccc1CN1CCNCC1` [Compound 538], for which the “FOLD ACT. MS” value is “A (A (Fold activation >250%))” and the EC50 lay within 5 to 50 µM. The matching figures for `COc1cc(C(=O)Nc2ccccc2-c2nc3cccnc3[nH]2)ccc1CN1CCN(C)CC1` [Compound 539]: “A (A (Fold activation >250%))” and less than 5 µM. For `COc1cc(C(=O)Nc2ccccc2-c2nc3cccnc3[nH]2)ccc1CN(C)C` [Compound 540] the same measures were “A (A (Fold activation >250%))” and 5 to 50 µM. For the molecule `COc1cc(C(=O)Nc2ccccc2-c2cn3ccccc3n2)ccc1CN1CCOCC1` [Compound 541], the “FOLD ACT. MS” value was “B (B (Fold Activation <250%))” and the EC50 fell in the range of 5 to 50 µM. The matching figures for `COc1cc(C(=O)Nc2ccccc2-c2cn3cccnc3n2)ccc1CN1CCOCC1` [Compound 542]: “A (A (Fold activation >250%))” and 5 to 50 µM. For `O=C(Nc1ccccc1-c1cn2c(CN3CCNCC3)csc2n1)c1cnccn1` [Compound 543] the same measures were “A (A (Fold activation >250%))” and less than 5 µM. For `O=C(Nc1ccccc1-c1cn2c(CN3CCNCC3)csc2n1)c1cc2ccccc2s1` [Compound 544] the same measures were “A (A (Fold activation >250%))” and 5 to 50 µM.

`COc1ccc(C(=O)Nc2ccccc2-c2cn3c(n2)CCCC3)cc1OC` [Compound 545]: the “FOLD ACT. MS” value was “B (B (Fold Activation <250%))” and the EC50 lay in the range of 5 to 50 µM.

Consider `COc1cc(C(=O)Nc2ccccc2-c2cn3c(n2)CCCC3)cc(OC)c1OC` [Compound 546], for which the “FOLD ACT. MS” value is reported as “B (B (Fold Activation <250%))” and the EC50 lay in the range of 5 to 50 µM. The matching figures for `O=C(Nc1ccccc1-c1cn2c(n1)CCCC2)c1ccc2ccccc2n1` [Compound 547]: “B (B (Fold Activation <250%))” and less than 5 µM. For `O=C(Nc1ccccc1-c1cn2c(n1)CCCC2)c1cnc2ccccc2n1` [Compound 548] the same measures were “B (B (Fold Activation <250%))” and less than 5 µM.

With `O=C(Nc1ccccc1-c1nc2ccccc2[nH]1)c1ccc2ccccc2n1` [Compound 556], the “FOLD ACT. MS” value is “A (A (Fold activation >250%))” and the EC50 was less than 5 µM.
